# Values quoted from earlier work, collected in patent US20170315129A1, “CANCER CELL DETECTION METHOD USING LIVING BODY-DERIVED CELLS OF BIOLOGICAL ORIGIN” (Hirosaki University, priority 2014, published 2017).
# Test system: mammalian cells
# Conditions: kinetics comparable to a radiolabeled D-glucose derivative; cited from earlier work
smiles,measurement,value
O=[N+]([O-])c1ccc(N[C@H]2C(O)O[C@H](CO)[C@@H](O)[C@@H]2O)c2nonc12 (stereo partly shown) [2-NBDG],uptake into mammalian cells,taken up into mammalian cells through glucose transporters
